Measured values as given in patent US20060025458A1, “Alkylammonium compounds as antifungal and antitrypanosomal agents” (University of Connecticut, priority 2004, published 2006).

Columns and labels:
[1] = tested on: de novo CDP-choline pathway (PtdCho synthesis from choline); experiment: Incorporation of labeled choline into PtdCho in P. falciparum-infected erythrocytes; format: cell-based, Plasmodium falciparum
Method: FIG. 10A. […] 5-6×10^7 synchronized P. falciparum-infected erythrocytes (7% trophozoite stage) were pre-incubated at 4% haematocrit for 1 h in RPMI-based medium containing the indicated concentration of G25 before adding 30 μM [methyl-^3H]-choline (334 mCi/mmol). After incubation at 37° C. for 3 h, the cellular lipids were extracted and fractionated on TLC plates for quantification of radioactivity in PtdCho (black squares).
Labeling Studies and Phospholipid Analysis in P. falciparum: Nigerian strains of P. falciparum were asexually cultured in the presence of basic medium (RPMI 1640 supplemented with 25 mM Hepes, pH 7.4) and 10% AB^+ human serum (Trager and Jensen, 1976). Parasite synchronization was obtained with three successive 5% sorbitol treatments (Lambros and Vanderberg, 1979). Synchronized P. falciparum-infected erythrocytes (7-10% parasitemia, trophozoites) were pre-incubated for 1 hour at 37° C. at 4% hematocrit in 2 ml (final volume) basic medium in the absence or the presence of different concentrations of the compound G25. The appropriate radioactive precursor of lipid metabolism was added followed by further 3 h of incubation. Radioactive precursors were used as follows: 30 μM [methyl-^3H]-choline (334 mCi/mmol), 2 μM [^3H]-ethanolamine (2 Ci/mmol) and 10 μM [3-^14C]-serine (57 mCi/mmol). Following incubation with radiolabeled precursors, cells were concentrated by centrifugation at 1,200×g for 5 min at 4° C., washed twice and the cellular lipids were extracted by a mixture of chloroform/methanol (Folch, et al., 1957) and the organic phase was evaporated under air. […] The silica gel of the lipid spots were scraped directly into scintillation vials containing 3 ml of liquid-scintillation fluid and counted in a Beckman LS 5000 spectrophotometer. The amount of labeled precursors incorporated into cellular lipids (nmol×10^7 cell^−1×h^−1) was computed on the basis of radioactivity incorporated into lipids and the specific activity of the precursors in the incubation medium. […]

C. albicans strain BWP17 = experiment: Growth inhibition of C. albicans in vitro; format: cell-based, Candida albicans; conditions: read-out: IC50, C. albicans proliferation
Method: G15, E24 and C35 inhibited at higher concentrations (>10 μM).

[2] = target: T1, recombinant PtdSer decarboxylase PfPsd1 (Plasmodium falciparum, UniProt Q9GPP8); experiment: PtdSer decarboxylase assay with recombinant enzyme; format: biochemical; conditions: increasing concentrations of G25
T1 construct: made in house
T1 sequence (Q9GPP8 1-362): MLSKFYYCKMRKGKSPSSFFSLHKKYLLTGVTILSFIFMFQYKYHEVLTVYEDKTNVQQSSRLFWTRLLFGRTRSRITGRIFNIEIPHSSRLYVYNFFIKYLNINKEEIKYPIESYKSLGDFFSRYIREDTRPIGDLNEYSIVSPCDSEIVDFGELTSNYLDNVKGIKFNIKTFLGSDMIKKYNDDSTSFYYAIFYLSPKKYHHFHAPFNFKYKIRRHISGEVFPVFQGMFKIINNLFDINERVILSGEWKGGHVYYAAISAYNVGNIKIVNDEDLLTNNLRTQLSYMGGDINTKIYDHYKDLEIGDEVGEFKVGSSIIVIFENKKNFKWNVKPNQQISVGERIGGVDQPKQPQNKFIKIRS
Method: FIG. 11A. Effect of G25 on the activity of purified recombinant PfPsd1 enzyme. PfPsd1 activity was determined as described in Materials and Methods by measuring the amount of [^14C]-PtdEtn formed from PtdSer. TLC analysis of PfPsd1-mediated conversion of PtdSer into PtdEtn in the absence and presence of increasing concentrations of G25 was performed.
FIG. 11B. Values are means±standard deviation of triplicate determination of two independent experiments.
Recombinant P. falciparum PtdSer decarboxylase was purified as described by Baunaure and colleagues (Baunaure, et al., 2004) The assay mixture (0.3 ml) contained 0.1 M potassium phosphate buffer (pH 6.8), 0.06% Triton X-100 (w/v), 200 μM L-[dipalmitoyl]phosphatidyl[3-^14C]-serine (1.35 mCi/mmol; Amersham), and the enzyme fraction containing recombinant protein of P. falciparum (240 μg). After incubation at 37° C. for 1 hour, the reaction was terminated by the addition of 400 μl chloroform. Chloroform-soluble materials were extracted, dried, and then dissolved in chloroform/methanol (9:1, v/v). Phospholipids were separated by Thin Layer Chromatography as described above. The radioactive phospholipids were localized and identified using appropriate standards, and radioactivity was quantified using the phosphoimager analyzer (Molecular Dynamics).
G25 inhibits the activity of recombinant P. falciparum PtdSer decarboxylase. […]

[3] = tested on: P. falciparum-infected erythrocytes; conditions: after 3 h incubation; cited from earlier work

**Q.** Which “inhibition of PtdCho biosynthesis” value ([1]; 1 μM G25) does the source give for `C[N+]1(CCCCCCCCCCCCCCCC[N+]2(C)CCCC2)CCCC1.[Br-].[Br-]` [G25, 1,16-hexadecamethylenebis[N-methylpyrrolidinium]dibromide] here?
**A.** The value was 56%.

**Q.** What about the “inhibition of PtdCho biosynthesis” value ([1]; 10 μM G25) of the same molecule?
**A.** The value was “nearly complete inhibition”.

**Q.** And the “concentration causing a significant decrease of PtdCho biosynthesis” value ([1]; trophozoite-infected erythrocytes)?
**A.** Its value is “higher than 0.1 μM”.

**Q.** What about the IC50 (C. albicans strain BWP17) of the same molecule?
**A.** The IC50 was roughly 5 µM.

**Q.** And the “activity of recombinant PfPsd1” value [2]?
**A.** The value was “steady decrease in the activity”.

**Q.** What about the “cellular accumulation ratio (CAR)” value [3] of the same molecule?
**A.** The value was roughly 300.
